The results in this text go back to patent US20260184693A1, “INHIBITORS OF SOLUTE CARRIER FAMILY 6A MEMBER 19 (SLC6A19) AND METHODS OF USE THEREOF” (Maze Therapeutics, Inc., priority 2022, published 2026).

In experiment [1] the target is T1, human SLC6A19 (Homo sapiens, UniProt Q695T7).
T1 construct: expressed in transfected cells
T1 sequence (Q695T7 1-634): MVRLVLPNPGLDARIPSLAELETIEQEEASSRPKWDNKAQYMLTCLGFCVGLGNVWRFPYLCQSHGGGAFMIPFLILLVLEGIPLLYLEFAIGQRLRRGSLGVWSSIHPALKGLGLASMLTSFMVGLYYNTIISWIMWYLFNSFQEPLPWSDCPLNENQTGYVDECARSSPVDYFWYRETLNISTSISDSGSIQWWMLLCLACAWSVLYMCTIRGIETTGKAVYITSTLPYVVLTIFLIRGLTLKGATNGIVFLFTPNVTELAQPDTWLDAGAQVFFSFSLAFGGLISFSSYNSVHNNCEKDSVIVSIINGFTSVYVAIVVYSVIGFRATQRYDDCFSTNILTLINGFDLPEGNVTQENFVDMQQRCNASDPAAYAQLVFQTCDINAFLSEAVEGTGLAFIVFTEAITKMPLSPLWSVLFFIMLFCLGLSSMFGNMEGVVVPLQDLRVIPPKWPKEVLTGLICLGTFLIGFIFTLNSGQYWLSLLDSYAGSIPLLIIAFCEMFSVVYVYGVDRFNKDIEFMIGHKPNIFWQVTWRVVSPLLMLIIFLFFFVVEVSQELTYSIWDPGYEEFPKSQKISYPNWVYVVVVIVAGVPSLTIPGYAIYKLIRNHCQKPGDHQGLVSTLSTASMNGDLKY
T1 sequence (Q9HBJ8 15-222 partner): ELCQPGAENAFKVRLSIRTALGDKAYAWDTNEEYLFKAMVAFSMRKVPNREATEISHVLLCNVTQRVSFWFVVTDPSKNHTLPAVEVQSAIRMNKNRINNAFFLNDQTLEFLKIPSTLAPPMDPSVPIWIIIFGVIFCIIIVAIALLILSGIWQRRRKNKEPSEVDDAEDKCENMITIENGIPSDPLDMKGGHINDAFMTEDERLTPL
The experiment in a line: Example B-1: L-[3H]leucine uptake, liquid scintillation, in CHO cells with doxycycline-inducible expression of human SLC6A19 and TMEM27. The note with it: read-out: SLC6A19_Radioligand Uptake Assay IC50. In kind it is cell-based. How it is done: CHO cells with doxycycline-inducible expression of human SLC6A19 and TMEM27 were maintained in T150 cell culture treated flasks using cell culture media, which consisted of 1×DMEM/F12 (Gibco, 11330057), 10% Tet System-Approved FBS (Gibco, A4736401), 100 U/mL Penicillin-Streptomycin (Gibco, 15140122), 1×GlutaMAX™ Supplement (Gibco, 35050061), 1 mM Sodium Pyruvate (Gibco, 11360070), 1.1 mg/mL Sodium Bicarbonate (Gibco, 25080094), 5 μg/mL Blasticidin (InvivoGen, ant-bl-1), 150 μg/mL Hygromycin B Gold (InvivoGen, ant-hg-5), and 500 μg/mL G418 (Sigma-Aldrich, G8168-100 mL). In preparation for the assay, this media was aspirated and 5 mL of TryμLE™ Express Enzyme (Gibco, 12605010) was added to each flask to initiate cell dissociation. The flasks were then incubated (humidified, 37° C. with 5% CO2) for 2 minutes. After incubation, 10 mL of pre-warmed cell culture media was added to each flask. The cell suspension was collected and centrifuged for 5 minutes at 200xg.
The supernatant was aspirated and the pellet was resuspended in 5 mL pre-warmed cell culture media. The resuspended cells were counted using the Countess Cell Counting Chamber (Invitrogen) and the cell concentration of the suspension was readjusted to 1 million live cells/mL using pre-warmed cell culture media. 25 uL/well (25,000 cells/well) of readjusted cell suspension was dispensed into Poly-D-Lysine 384-well white/clear plates (Corning, 354660) using a MultiDrop Combi (Thermo Electron Corp). To induce expression of Human SLC6A19 and TMEM27, 25 uL/well of cell culture media containing 2 μg/mL doxycycline was added to the first 23 columns of each plate resulting in a final concentration of […] doxycycline. 25 μL/well of cell culture media was added to the last column of each plate, to act as negative control wells for Human SLC6A19 and TMEM27 expression. Assay plates were then incubated (humidified, 37° C. with 5% CO2) for 18 hours. After incubation, the media was aspirated and the wells were washed 4 times with pre-warmed HBSS (Sigma-Aldrich, H8264-1L) using an Apricot S-Pipette S2 (Apricot Designs), such that 5 uL/well HBSS was remaining at the end of each wash. […] At this step, the final in-well DMSO concentration in the assay plate is 0.5%. All compounds were plated in a duplicate 8-point dilution series that consisted of 3-fold dilutions. […] Afterwards, 15 uL/well of 3.2 mM hot:cold leucine solution (1:15000 ratio of L-[3,4,5-3H(N)] Leucine (Perkin Elmer, NET460001MC) to L-Leucine (Sigma-Aldrich, L8912-25G) diluted with HBSS (Sigma-Aldrich, H8264-1L)) was added using the Viaflo 384 (Integra), for a final concentration of 1.6 mM hot:cold leucine solution. The plates were then incubated (humidified, 37° C. with 5% CO2) for 20 minutes to conduct the uptake reaction. Immediately after the incubation, the plates were washed 4 times with HBSS (Sigma-Aldrich, H8264-1L) using the ELx405 Microplate Washer (Biotek) to terminate the uptake reaction. After the washes, 50 uL/well Ultima Gold Scintillation Cocktail (Perkin Elmer, 6013326) was added to each well using the Viaflo 384 (Integra). The plates were then incubated (humidified, 37° C. with 5% CO2) on a plate shaker at 200 rpm for 2 hours. After incubation, the plates were removed from the shaker and kept at room temperature for 15 minutes.
Liquid scintillation analysis was performed using the MicroBeta2 Microplate Counter (Perkin Elmer). Activity (%) was derived by normalizing the average of positive control compound treated wells to 0% and the average of DMSO (negative control) wells to 100%. Collaborative Drug Discovery software was used for graphing data.

Experiment [2] deals with T1, human SLC6A19. The experiment in a line: Example B2: 13C6,15N-isoleucine uptake, RapidFire mass spectrometry, in CHO cells with doxycycline-inducible expression of human SLC6A19 and TMEM27. The class given is cell-based. Conditions: read-out: SLC6A19_RapidFire Uptake Assay IC50. A digest of the protocol:
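Labelled isoleucine (13C6,15N; 2 mM added) was given 20 min at 37 °C, following a 20-min compound pre-treatment (10-point 2-fold series, duplicate). Cells were doxycycline-induced CHO co-expressing human SLC6A19 and TMEM27. Intracellular label was quantified by RapidFire-MS peak areas against a 13C-leucine standard.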

In general, IC50 refers to the midpoint of a concentration-inhibition curve. Regarding `CN(C(=O)NCc1cc2cc(Cl)ccc2[nH]1)[C@@H]1CCCN(C(=O)c2ccn(CC(F)(F)F)n2)C1` [Compound 198, (R)-3-((5-chloro-1H-indol-2-yl)methyl)-1-methyl-1-(1-(1-(2,2,2-trifluoroethyl)-1H-pyrazole-3-carbonyl)piperidin-3-yl)urea], the IC50 amounted to 232 nM at human SLC6A19 [1] and 163 nM at human SLC6A19 [2].
On the same counts, the results for `CCN(C(=O)NCc1cc2cc(Cl)c(OCc3ccon3)cc2[nH]1)[C@@H]1CCCN(C(C)=O)C1` [Compound 137, (R)-1-(1-acetylpiperidin-3-yl)-3-((5-chloro-6-(isoxazol-3-ylmethoxy)-1H-indol-2-yl)methyl)-1-ethylurea] are 359 nM and 273 nM.
On the same counts, the results for `Cc1conc1N1CCC[C@@H](N(C)C(=O)NCc2cc3cc(Cl)ccc3[nH]2)C1` [Compound 234, (R)-3-((5-chloro-1H-indol-2-yl)methyl)-1-methyl-1-(1-(4-methylisoxazol-3-yl)piperidin-3-yl)urea] are 367 nM and 255 nM.
The matching figures for `Cc1ocnc1C(=O)N1CCC[C@@H](N(C)C(=O)NCc2cc3cc(Cl)ccc3[nH]2)C1` [Compound 187, (R)-3-((5-chloro-1H-indol-2-yl)methyl)-1-methyl-1-(1-(5-methyloxazole-4-carbonyl)piperidin-3-yl)urea]: 1230 nM and 2770 nM.
`CN(C(=O)NCc1cc2cc(Cl)ccc2[nH]1)[C@@H]1CCCN(C(=O)C2CC(CO)C2)C1` (stereo partly drawn) [Compound 121, (R)-3-((5-chloro-1H-indol-2-yl)methyl)-1-(1-(3-(hydroxymethyl)cyclobutane-1-carbonyl)piperidin-3-yl)-1-methylurea]: the IC50 is 280 nM at human SLC6A19 [1] and 405 nM at human SLC6A19 [2].
Turning to `CC(=O)N1CCC[C@@H](N(C)C(=O)NCc2cc3[nH]cc(C)c3cc2C)C1` [Compound 233, (R)-1-(1-acetylpiperidin-3-yl)-3-((3,5-dimethyl-1H-indol-6-yl)methyl)-1-methylurea], the 50% inhibitory concentration (IC50) on human SLC6A19 [1] is 15600 nM; on human SLC6A19 [2], 9120 nM.
The matching figures for `CN(C(=O)NCc1cc2cc(Cl)ccc2[nH]1)[C@@H]1CCCN(C(=O)Cc2ccno2)C1` [Compound 194, (R)-3-((5-chloro-1H-indol-2-yl)methyl)-1-(1-(2-(isoxazol-5-yl)acetyl)piperidin-3-yl)-1-methylurea]: 197 nM and 242 nM.
With `Cc1cc(C(=O)N2CCC[C@@H](N(C)C(=O)NCc3cc4cc(Cl)ccc4[nH]3)C2)nn1C` [Compound 236, (R)-3-((5-chloro-1H-indol-2-yl)methyl)-1-(1-(1,5-dimethyl-1H-pyrazole-3-carbonyl)piperidin-3-yl)-1-methylurea], the values for the IC50 on human SLC6A19 [1] and on human SLC6A19 [2] were 975 nM and 805 nM, respectively.
On the same counts, the results for `CN(C(=O)NCc1cc2cc(Cl)ccc2[nH]1)[C@@H]1CCCN(C(=O)c2cccc(O)c2)C1` [Compound 190, (R)-3-((5-chloro-1H-indol-2-yl)methyl)-1-(1-(3-hydroxybenzoyl)piperidin-3-yl)-1-methylurea] are 483 nM and 578 nM.
The matching figures for `CC(=O)N1CCC[C@@H](N(C)C(=O)NCc2cc3cc(Cl)ccc3[nH]2)C1` [Compound 147, (R)-1-(1-acetylpiperidin-3-yl)-3-((5-chloro-1H-indol-2-yl)methyl)-1-methylurea]: 183 nM and 195 nM.
The matching figures for `CN(C(=O)NCc1cc2cc(Cl)ccc2[nH]1)[C@@H]1CCCN(C(=O)Cc2cn[nH]c2)C1` [Compound 199, (R)-1-(1-(2-(1H-pyrazol-4-yl)acetyl)piperidin-3-yl)-3-((5-chloro-1H-indol-2-yl)methyl)-1-methylurea]: 434 nM and 582 nM.
As to `CN(C(=O)NCc1cc2cc(Cl)ccc2[nH]1)[C@@H]1CCCN(C(=O)Cc2ccn(C)n2)C1` [Compound 197, (R)-3-((5-chloro-1H-indol-2-yl)methyl)-1-methyl-1-(1-(2-(1-methyl-1H-pyrazol-3-yl)acetyl)piperidin-3-yl)urea], the IC50 at human SLC6A19 [1] was 219 nM; at human SLC6A19 [2], 396 nM.
On the same counts, the results for `CC(=O)N1CCC[C@@H](N(C(=O)NCc2cc3cc(Cl)ccc3[nH]2)C(C)C)C1` [Compound 221, (R)-1-(1-acetylpiperidin-3-yl)-3-((5-chloro-1H-indol-2-yl)methyl)-1-isopropylurea] are 2410 nM and 4610 nM.
Turning to `CN(C(=O)NCc1cc2cc(Cl)ccc2[nH]1)[C@@H]1CCCN(C(=O)c2ccccc2O)C1` [Compound 196, (R)-3-((5-chloro-1H-indol-2-yl)methyl)-1-(1-(2-hydroxybenzoyl)piperidin-3-yl)-1-methylurea], the IC50 on human SLC6A19 [1] was determined as 640 nM; at human SLC6A19 [2] it was 518 nM.
Take `CC(=O)N1CCC[C@@H](N(C)C(=O)NCCc2ccc(F)c(-c3cc4ccccc4[nH]3)c2)C1` [Compound 244, (R)-1-(1-acetylpiperidin-3-yl)-3-(4-fluoro-3-(1H-indol-2-yl)phenethyl)-1-methylurea]: the IC50 on human SLC6A19 [1] is greater than 10000 nM; on human SLC6A19 [2], 7080 nM.
The matching figures for `CC(=O)N1C[C@@H](C)C[C@@H](N(C)C(=O)NCc2cc3cc(Cl)ccc3[nH]2)C1` (racemic) [Compound 243, 1-((3R,5S and 3S,5R)-1-acetyl-5-methylpiperidin-3-yl)-3-((5-chloro-1H-indol-2-yl)methyl)-1-methylurea]: 262 nM and 153 nM.
As for `CN(C(=O)NCc1cc2cc(Cl)ccc2[nH]1)[C@@H]1CCCN(C(=O)c2cccnc2)C1` [Compound 237, (R)-3-((5-chloro-1H-indol-2-yl)methyl)-1-methyl-1-(1-nicotinoylpiperidin-3-yl)urea], the IC50 at human SLC6A19 [1] was 434 nM; at human SLC6A19 [2], 1210 nM.
As to `CCc1ccc2cc(CNC(=O)N(C)[C@@H]3CCCN(C(C)=O)C3)[nH]c2c1` [Compound 219, (R)-1-(1-acetylpiperidin-3-yl)-3-((6-ethyl-1H-indol-2-yl)methyl)-1-methylurea], the IC50 is greater than 10000 nM on human SLC6A19 [1] and 12900 nM on human SLC6A19 [2].
